According to ChEMBL document CHEMBL1150217, “Molecular structure and activity toward DNA of baicalein, a flavone constituent of the Asian herbal medicine "Sho-saiko-to"” (J Nat Prod, 2001):
Activity calls are given as the source filed them. The calls are words filed in the database; no cut-off is given here.

Tests used:
[1] = system: Human immunodeficiency virus; experiment: Inhibition of HIV integrase
Calf thymus DNA = experiment: Binding affinity to calf thymus DNA assessed as intercalation by agarose gel electrophoresis; format: nucleic-acid assay; details: Bos taurus

- Activity [1]: Active
- Activity (Calf thymus DNA): Active
Compound: O=c1cc(-c2ccccc2)oc2cc(O)c(O)c(O)c12
